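Briefly, cells in 96-well plates were exposed to five compound concentrations for 48 h, and endpoints were estimated by linear interpolation. Here, GI50 denotes the concentration required for 50% inhibition of growth. The concentration for full growth arrest is given as TGI.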
What was measured:
Assay in all cases: DTP human tumour cell line panel, 48 h
SK-MEL-2 melanoma = system: SK-MEL-2 melanoma
UACC-62 melanoma = system: UACC-62 melanoma
BT-549 breast = system: BT-549 breast
SR leukemia = system: SR leukemia
MOLT-4 leukemia = system: MOLT-4 leukemia
HCC-2998 colon = system: HCC-2998 colon
DU-145 prostate = system: DU-145 prostate
CCRF-CEM leukemia = system: CCRF-CEM leukemia
COLO 205 colon = system: COLO 205 colon
HCT-116 colon = system: HCT-116 colon
HCT-15 colon = system: HCT-15 colon
SN12C renal = system: SN12C renal
NCI-H522 lung = system: NCI-H522 lung
HOP-62 NSCLC = system: HOP-62 NSCLC
HS 578T breast = system: HS 578T breast
NCI-H226 lung = system: NCI-H226 lung
MDA-MB-435 = system: MDA-MB-435
MALME-3M melanoma = system: MALME-3M melanoma
SK-MEL-28 melanoma = system: SK-MEL-28 melanoma
ACHN renal = system: ACHN renal
SW-620 colon = system: SW-620 colon
HL-60(TB) leukemia = system: HL-60(TB) leukemia
NCI-H23 lung = system: NCI-H23 lung
U251 CNS = system: U251 CNS
UACC-257 melanoma = system: UACC-257 melanoma
SNB-19 CNS = system: SNB-19 CNS
OVCAR-5 ovarian = system: OVCAR-5 ovarian
NCI-H460 lung = system: NCI-H460 lung
OVCAR-8 ovarian = system: OVCAR-8 ovarian
IGROV1 ovarian = system: IGROV1 ovarian
SF-295 CNS = system: SF-295 CNS
M14 melanoma = system: M14 melanoma
SF-539 CNS = system: SF-539 CNS
LOX IMVI melanoma = system: LOX IMVI melanoma
HOP-92 NSCLC = system: HOP-92 NSCLC
RXF 393 renal = system: RXF 393 renal
CAKI-1 renal = system: CAKI-1 renal
SNB-75 CNS = system: SNB-75 CNS
OVCAR-4 ovarian = system: OVCAR-4 ovarian
T-47D breast = system: T-47D breast
KM12 colon = system: KM12 colon
OVCAR-3 ovarian = system: OVCAR-3 ovarian
UO-31 renal = system: UO-31 renal
HT29 colon = system: HT29 colon
TK-10 renal = system: TK-10 renal
PC-3 prostate = system: PC-3 prostate
SF-268 CNS = system: SF-268 CNS
NCI/ADR-RES ovarian = system: NCI/ADR-RES ovarian
MCF7 breast = system: MCF7 breast
K-562 leukemia = system: K-562 leukemia
A549 NSCLC = system: A549 NSCLC
EKVX NSCLC = system: EKVX NSCLC
A498 renal = system: A498 renal
MDA-MB-231 breast = system: MDA-MB-231 breast
RPMI-8226 leukemia = system: RPMI-8226 leukemia
SK-OV-3 ovarian = system: SK-OV-3 ovarian
SK-MEL-5 melanoma = system: SK-MEL-5 melanoma

SMILES: CCNC(=O)CCCCC(=O)c1c(C)[nH]c(/C=C2\N=C(c3ccc[nH]3)C=C2OC)c1C
- GI50 (SK-MEL-2 melanoma): 3.14 µM
- TGI (SK-MEL-2 melanoma): 7.44 µM
- GI50 (UACC-62 melanoma): 6.11 µM
- TGI (UACC-62 melanoma): 19.3 µM
- GI50 (BT-549 breast): 2.85 µM
- TGI (BT-549 breast): 10.3 µM
- GI50 (SR leukemia): 1.65 µM
- TGI (SR leukemia): 32.8 µM
- GI50 (MOLT-4 leukemia): 2.31 µM
- TGI (MOLT-4 leukemia): > 100 µM
- GI50 (HCC-2998 colon): 2.42 µM
- TGI (HCC-2998 colon): 7.9 µM
- GI50 (DU-145 prostate): 3.01 µM
- TGI (DU-145 prostate): 11 µM
- GI50 (CCRF-CEM leukemia): 2.59 µM
- TGI (CCRF-CEM leukemia): > 100 µM
- GI50 (COLO 205 colon): 1.97 µM
- TGI (COLO 205 colon): 3.65 µM
- GI50 (HCT-116 colon): 2.33 µM
- TGI (HCT-116 colon): 23.6 µM
- GI50 (HCT-15 colon): 1.83 µM
- TGI (HCT-15 colon): 4.4 µM
- GI50 (SN12C renal): 2.47 µM
- TGI (SN12C renal): 6.16 µM
- GI50 (NCI-H522 lung): 2.2 µM
- TGI (NCI-H522 lung): 5.48 µM
- GI50 (HOP-62 NSCLC): 1.1 µM
- TGI (HOP-62 NSCLC): 2.88 µM
- GI50 (HS 578T breast): 2.04 µM
- TGI (HS 578T breast): 4.92 µM
- GI50 (NCI-H226 lung): 20.3 µM
- TGI (NCI-H226 lung): 41.1 µM
- GI50 (MDA-MB-435): 2.77 µM
- TGI (MDA-MB-435): 7.74 µM
- GI50 (MALME-3M melanoma): 2.32 µM
- TGI (MALME-3M melanoma): 5.74 µM
- GI50 (SK-MEL-28 melanoma): 1.66 µM
- TGI (SK-MEL-28 melanoma): 3.09 µM
- GI50 (ACHN renal): 1.8 µM
- TGI (ACHN renal): 3.34 µM
- GI50 (SW-620 colon): 1.94 µM
- TGI (SW-620 colon): 3.51 µM
- GI50 (HL-60(TB) leukemia): 2.06 µM
- TGI (HL-60(TB) leukemia): 5.41 µM
- GI50 (NCI-H23 lung): 4.5 µM
- TGI (NCI-H23 lung): 24.5 µM
- GI50 (U251 CNS): 1.99 µM
- TGI (U251 CNS): 4.5 µM
- GI50 (UACC-257 melanoma): 6.41 µM
- TGI (UACC-257 melanoma): 26.1 µM
- GI50 (SNB-19 CNS): 6.74 µM
- TGI (SNB-19 CNS): 19.2 µM
- GI50 (OVCAR-5 ovarian): 6.01 µM
- TGI (OVCAR-5 ovarian): 20.6 µM
- GI50 (NCI-H460 lung): 1.95 µM
- TGI (NCI-H460 lung): 4.19 µM
- GI50 (OVCAR-8 ovarian): 2.96 µM
- TGI (OVCAR-8 ovarian): 7.73 µM
- GI50 (IGROV1 ovarian): 3.82 µM
- TGI (IGROV1 ovarian): > 100 µM
- GI50 (SF-295 CNS): 2.81 µM
- TGI (SF-295 CNS): 7.6 µM
- GI50 (M14 melanoma): 2.68 µM
- TGI (M14 melanoma): 7.13 µM
- GI50 (SF-539 CNS): 1.59 µM
- TGI (SF-539 CNS): 3.34 µM
- GI50 (LOX IMVI melanoma): 1.76 µM
- TGI (LOX IMVI melanoma): 3.65 µM
- GI50 (HOP-92 NSCLC): 2.04 µM
- TGI (HOP-92 NSCLC): 9.69 µM
- GI50 (RXF 393 renal): 2.97 µM
- TGI (RXF 393 renal): 8.41 µM
- GI50 (CAKI-1 renal): 2.09 µM
- TGI (CAKI-1 renal): 5 µM
- GI50 (SNB-75 CNS): 3.26 µM
- TGI (SNB-75 CNS): 24.4 µM
- GI50 (OVCAR-4 ovarian): 1.76 µM
- TGI (OVCAR-4 ovarian): 4.36 µM
- GI50 (T-47D breast): 2.68 µM
- TGI (T-47D breast): 6.43 µM
- GI50 (KM12 colon): 2.17 µM
- TGI (KM12 colon): 4.79 µM
- GI50 (OVCAR-3 ovarian): 1.85 µM
- TGI (OVCAR-3 ovarian): 3.67 µM
- GI50 (UO-31 renal): 2.03 µM
- TGI (UO-31 renal): 4.51 µM
- GI50 (HT29 colon): 2.34 µM
- TGI (HT29 colon): 7.68 µM
- GI50 (TK-10 renal): 2.37 µM
- TGI (TK-10 renal): 5.37 µM
- GI50 (PC-3 prostate): 1.63 µM
- TGI (PC-3 prostate): 5.8 µM
- GI50 (SF-268 CNS): 2.41 µM
- TGI (SF-268 CNS): 6.52 µM
- GI50 (NCI/ADR-RES ovarian): 2.94 µM
- TGI (NCI/ADR-RES ovarian): 10.8 µM
- GI50 (MCF7 breast): 1.84 µM
- TGI (MCF7 breast): 4.51 µM
- GI50 (K-562 leukemia): 3.23 µM
- TGI (K-562 leukemia): > 100 µM
- GI50 (A549 NSCLC): 4.72 µM
- TGI (A549 NSCLC): 21.4 µM
- GI50 (EKVX NSCLC): 11.2 µM
- TGI (EKVX NSCLC): 31.7 µM
- GI50 (A498 renal): 8.19 µM
- TGI (A498 renal): 21 µM
- GI50 (MDA-MB-231 breast): 2.04 µM
- TGI (MDA-MB-231 breast): 4.32 µM
- GI50 (RPMI-8226 leukemia): 2.79 µM
- TGI (RPMI-8226 leukemia): > 100 µM
- GI50 (SK-OV-3 ovarian): 2.59 µM
- TGI (SK-OV-3 ovarian): 5.76 µM
- GI50 (SK-MEL-5 melanoma): 11.7 µM
- TGI (SK-MEL-5 melanoma): 24.9 µM
